Legend:
[1] = Coadministration of ripretinib with a proton-pump inhibitor (pantoprazole): exposure; format: in vivo; details: for differences in plasma exposure: ripretinib coadministered with pantoprazole
Procedure: The effect of a proton-pump inhibitor on the exposure of ripretinib was evaluated.

[2] = Food effect (high-fat meal) on ripretinib and Compound A exposure; format: in vivo; details: for AUC0-24h higher by / Cmax higher by: ripretinib 150 mg dose with a high-fat meal
Procedure: The effect of a high-fat breakfast on ripretinib and Compound A exposure was evaluated. A high fat meal consisted of approximately 150, 250, and 500-600 calories from protein, carbohydrate, and fat, respectively. […] Therefore, ripretinib may be taken with or without food at approximately same time each day.

[3] = Coadministration of ripretinib with a strong CYP3A inhibitor (itraconazole): exposure; format: in vivo; details: coadministration of ripretinib with itraconazole (strong CYP3A inhibitor and P-gp inhibitor)
patients with melanoma = experiment: Phase 1 study of treating melanoma with ripretinib (efficacy, RECIST 1.1); format: in vivo, human
Procedure: This is a Phase 1 study to evaluate the efficacy of ripretinib in treating patients with melanoma. An efficacy cohort of 26 patients were enrolled. Each patient was administered 150 mg of ripretinib daily in repeated 28-day cycles until disease progression, unacceptable toxicity, or consent withdrawal. Patients who had disease progression at ripretinib 150 mg QD were allowed to escalate to 150 mg twice daily (BID) after the completion of Cycle 2. The efficacy endpoints includes Objective Response Rate (ORR), Disease Control Rate (DCR), Duration of Response (DOR) Time to Best Response (TBR), and progression-free survival (PFS) as determined by radiologic review using Response Evaluation Criteria in Solid Tumors (RECIST 1.1).
Prior tyrosine kinase inhibitor (TKI) treatment analysis. […] 17 of the 25 members of the cohort received no prior TKI and, among these members, the mPFS was determined to be 10.2 months and the ORR was determined to be 29.4% (5 out of 17 members). 8 of the 25 members received TKI treatment prior to receiving ripretinib and, among these members, the mPFS was determined to be 2.9 months and the ORR was determined to be 11% (1 out of […] members).
Mutational Analysis. An analysis of the efficacy of ripretinib based on baseline mutations of melanoma among the efficacy cohort was performed. […] L576P (Exon 11), K642E (Exon 13) and N822K/Y (Exon 17) were determined to be the most prevalent baseline mutations in this cohort.

Solubility = format: physicochemical
[4] = investigator assessment, Total (N = 26)
[5] = investigator assessment, Total, n 6

For `CCn1c(=O)c(-c2cc(NC(=O)Nc3ccccc3)c(F)cc2Br)cc2cnc(N)cc21` [Compound A], the “differences in plasma exposure” value [1] was “No clinically significant differences”, the “AUC0-24h higher by” value [2] was 47% and the “Cmax higher by” value [2] was 66%. For the same compound, the “increase in AUC0-inf” value [3] was 99% and the “increase in Cmax” value [3] was “no change”.

With `CCn1c(=O)c(-c2cc(NC(=O)Nc3ccccc3)c(F)cc2Br)cc2cnc(NC)cc21` [ripretinib] the “effect on ripretinib exposure” value ([1]; 40 mg QD pantoprazole with 150 mg QD ripretinib) was “did not affect ripretinib exposure”, the “differences in plasma exposure” value [1] was “No clinically significant differences” and the “food effect, clinical significance” value ([2]; based on exposure-response analysis) was “not considered to be clinically significant”. For the same compound, the “AUC0-24h higher by” value [2] was 30%, the “Cmax higher by” value [2] was 22% and the “median PFS” value (patients with melanoma; 150 mg daily, 28-day cycles, whole efficacy cohort) was 7.3 months. For the same compound, the “confirmed ORR” value (patients with melanoma; Exon 11 patients) was 44%, the “median PFS” value (patients with melanoma; Exon 11 patients) was 10.2 months and the “median duration of response” value (patients with melanoma; Exon 11 patients) was 10.5 months. For the same compound, the “median time to confirmed response” value (patients with melanoma; Exon 11 patients) was 1.9 months, the “confirmed ORR” value (patients with melanoma; Exon 17 patients) was 18% and the “median PFS” value (patients with melanoma; Exon 17 patients) was 13.6 months. For the same compound, the “median duration of response” value (patients with melanoma; Exon 17 patients) was 8.1 months, the “median time to confirmed response” value (patients with melanoma; Exon 17 patients) was 1.7 months and the “Confirmed Partial Response, %” value (patients with melanoma; KIT Exon 11 (N = 9)) was “(44.4) %”. For the same compound, the “No Response Assessment, %” value (patients with melanoma; KIT Exon 11 (N = 9)) was “(11.1) %”, the “Progressive Disease, %” value (patients with melanoma; KIT Exon 11 (N = 9)) was “(11.1) %” and the “Stable Disease (≥6 wks), %” value (patients with melanoma; KIT Exon 11 (N = 9)) was “(33.3) %”. The “Progressive Disease, %” value (patients with melanoma; KIT Exon 13 (N = 4)) was “(50.0) %”, the “Stable Disease (≥6 wks), %” value (patients with melanoma; KIT Exon 13 (N = 4)) was “(50.0) %” and the “Confirmed Complete Response, %” value (patients with melanoma; KIT Exon 17 (N = 11)) was “(9.1) %”. For the same compound, the “Confirmed Partial Response, %” value (patients with melanoma; KIT Exon 17 (N = 11)) was “(9.1) %”, the “Progressive Disease, %” value (patients with melanoma; KIT Exon 17 (N = 11)) was “(36) %” and the “Stable Disease (≥6 wks), %” value (patients with melanoma; KIT Exon 17 (N = 11)) was “(45.5) %”. The “Progressive Disease, %” value (patients with melanoma; KIT Exon 18 (N = 1)) was 100.0%, the “Stable Disease (≥6 wks), %” value (patients with melanoma; KIT Exon Amplification (N = 1)) was 100.0% and the “Objective Response Rate, %” value (patients with melanoma; investigator assessment, Total) was “(23.1) %”. For the same compound, the “Time to Response, Median” value (patients with melanoma; investigator assessment, Total) was 1.9 Months, the “Best Overall Response: Confirmed Complete Response, %” value (patients with melanoma; [4]) was “(3.8) %” and the “Best Overall Response: Confirmed Partial Response, %” value (patients with melanoma; [4]) was “(19.2) %”. For the same compound, the “Best Overall Response: No Response Assessment, %” value (patients with melanoma; [4]) was “(4) %”, the “Best Overall Response: Progressive Disease, %” value (patients with melanoma; [4]) was “(31) %” and the “Best Overall Response: Stable Disease (≥6 weeks duration), %” value (patients with melanoma; [4]) was “(42.3) %”. The “Duration of Response, Max” value (patients with melanoma; [5]) was 28.6 Months, the “Duration of Response, Mean” value (patients with melanoma; [5]) was 10.5 Months and the “Duration of Response, Median” value (patients with melanoma; [5]) was 9.1 Months. The “Duration of Response, Min” value (patients with melanoma; [5]) was 4.1 Months, the mPFS (patients with melanoma; no prior TKI treatment) was 10.2 months and the ORR (patients with melanoma; no prior TKI treatment (5 out of 17)) was 29.4%. For the same compound, the mPFS (patients with melanoma; prior TKI treatment) was 2.9 months, the ORR (patients with melanoma; prior TKI treatment (1 out of 9)) was 11% and the “confirmed ORR” value (patients with melanoma; radiologic review using RECIST version 1.1, whole cohort (6 out of 26)) was 23.1%. For the same compound, the “confirmed and unconfirmed ORR” value (patients with melanoma; whole cohort) was 30.8%, the “median DOR (mDOR)” value (patients with melanoma; whole cohort) was 9.1 months and the “increase in AUC0-inf” value [3] was 99%. The “increase in Cmax” value [3] was 36% and the solubility (Solubility) was “pH-dependent solubility”.

— patent US20240122906A1, “METHODS OF TREATING MELANOMA WITH RIPRETINIB” (Deciphera Pharmaceuticals, LLC, priority 2021, published 2024)
